Values after ≈ are worked out from the molar mass of the structure shown.
Key:
E. coli strain 25922 = test: MIC by broth microdilution, E. coli strain 25922; assay type: cell-based; details: Escherichia coli, 25922, E. coli strain 25922; read-out: Ec 25922 (MIC)
How it was run: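 CLSI broth microdilution in cation-adjusted Mueller-Hinton broth, inoculum about 5×10^5 CFU/mL, 10% DMSO from the diluted series, 20 h at 35-37° C. MIC is the lowest concentration preventing visible growth, read by eye and at 600 nm.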

E. coli containing KPC-2 = test: MIC by broth microdilution, E. coli containing KPC-2 (Ec KPC2 Iso); assay type: cell-based; details: Escherichia coli, read-out: Ec KPC2 Iso (MIC), E. coli containing KPC-2 (carbapenemase from Klebsiella pneumoniae)
How it was run: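 Host E. coli BW25113 pspB carrying multicopy pBAD18-kan plasmid with constitutive TEM-promoter KPC-2 expression (periplasmic signal sequence); broth microdilution per CLSI in cation-adjusted Mueller-Hinton broth, inoculum ~5×10^5 CFU/mL, compounds twofold serially diluted from DMSO masters (10% DMSO in dilution series added).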

SMILES | MIC (E. coli strain 25922) | MIC (E. coli containing KPC-2)
N=C(NCCN)NCc1cnn(C[C@@H]2[C@H](NC(=O)/C(=N\OC3(C(=O)O)CC3)c3csc(N)n3)C(=O)N2S(=O)(=O)O)n1 [Example 129, 1-(((Z)-(2-(((2R,3S)-2-((4-((3-(2-aminoethyl)guanidino)methyl)-2H-1,2,3-triazol-2-yl)methyl)-4-oxo-1-sulfoazetidin-3-yl)amino)-1-(2-aminothiazol-4-yl)-2-oxoethylidene)amino)oxy)cyclopropanecarboxylic acid] | 0.5 mg/L (≈ 0.814 µM) | 1 mg/L (≈ 1.63 µM)
N=C(N)N(CCCN)Cc1cnn(C[C@@H]2[C@H](NC(=O)/C(=N\OC3(C(=O)O)CC3)c3csc(N)n3)C(=O)N2S(=O)(=O)O)n1 [Example 130, 1-(((Z)-(2-(((2R,3S)-2-((4-((1-(3-aminopropyl)guanidino)methyl)-2H-1,2,3-triazol-2-yl)methyl)-4-oxo-1-sulfoazetidin-3-yl)amino)-1-(2-aminothiazol-4-yl)-2-oxoethylidene)amino)oxy)cyclopropanecarboxylic acid] | 1 mg/L (≈ 1.59 µM) | 2 mg/L (≈ 3.18 µM)
CC(C)(N)CCNCc1cnn(C[C@@H]2[C@H](NC(=O)/C(=N\OC3(C(=O)O)CC3)c3csc(N)n3)C(=O)N2S(=O)(=O)O)n1 [Example 131, 1-(((Z)-(2-(((2R,3S)-2-((4-(((3-amino-3-methylbutyl)amino)methyl)-2H-1,2,3-triazol-2-yl)methyl)-4-oxo-1-sulfoazetidin-3-yl)amino)-1-(2-aminothiazol-4-yl)-2-oxoethylidene)amino)oxy)cyclopropanecarboxylic acid] | 1 mg/L (≈ 1.63 µM) | 2 mg/L (≈ 3.25 µM)
CC(C)(CCN)NCc1cnn(C[C@@H]2[C@H](NC(=O)/C(=N\OC3(C(=O)O)CC3)c3csc(N)n3)C(=O)N2S(=O)(=O)O)n1 [Example 132, 1-(((Z)-(2-(((2R,3S)-2-((4-(((4-amino-2-methylbutan-2-yl)amino)methyl)-2H-1,2,3-triazol-2-yl)methyl)-4-oxo-1-sulfoazetidin-3-yl)amino)-1-(2-aminothiazol-4-yl)-2-oxoethylidene)amino)oxy)cyclopropanecarboxylic acid] | 1 mg/L (≈ 1.63 µM) | 1 mg/L (≈ 1.63 µM)
NCCOC(=O)NCc1cnn(C[C@@H]2[C@H](NC(=O)/C(=N\OC3(C(=O)O)CC3)c3csc(N)n3)C(=O)N2S(=O)(=O)O)n1 [Example 133, 1-(((Z)-(2-(((2R,3S)-2-((4-((((2-aminoethoxy)carbonyl)amino)methyl)-2H-1,2,3-triazol-2-yl)methyl)-4-oxo-1-sulfoazetidin-3-yl)amino)-1-(2-aminothiazol-4-yl)-2-oxoethylidene)amino)oxy)cyclopropanecarboxylic acid] | 1 mg/L (≈ 1.62 µM) | 0.5 mg/L (≈ 0.811 µM)
NCC(=O)NCc1cnn(C[C@@H]2[C@H](NC(=O)/C(=N\OC3(C(=O)O)CC3)c3csc(N)n3)C(=O)N2S(=O)(=O)O)n1 [Example 134, 1-(((Z)-(2-(((2R,3S)-2-((4-((2-aminoacetamido)methyl)-2H-1,2,3-triazol-2-yl)methyl)-4-oxo-1-sulfoazetidin-3-yl)amino)-1-(2-aminothiazol-4-yl)-2-oxoethylidene)amino)oxy)cyclopropanecarboxylic acid] | 0.5 mg/L (≈ 0.852 µM) | 0.25 mg/L (≈ 0.426 µM)
NCCNC(=O)NCc1cnn(C[C@@H]2[C@H](NC(=O)/C(=N\OC3(C(=O)O)CC3)c3csc(N)n3)C(=O)N2S(=O)(=O)O)n1 [Example 135, 1-(((Z)-(2-(((2R,3S)-2-((4-((3-(2-aminoethyl)ureido)methyl)-2H-1,2,3-triazol-2-yl)methyl)-4-oxo-1-sulfoazetidin-3-yl)amino)-1-(2-aminothiazol-4-yl)-2-oxoethylidene)amino)oxy)cyclopropanecarboxylic acid] | 0.5 mg/L (≈ 0.812 µM) | 0.5 mg/L (≈ 0.812 µM)
NCCCNC(=O)NCc1cnn(C[C@@H]2[C@H](NC(=O)/C(=N\OC3(C(=O)O)CC3)c3csc(N)n3)C(=O)N2S(=O)(=O)O)n1 [Example 136, 1-(((Z)-(2-(((2R,3S)-2-((4-((3-(3-aminopropyl)ureido)methyl)-2H-1,2,3-triazol-2-yl)methyl)-4-oxo-1-sulfoazetidin-3-yl)amino)-1-(2-aminothiazol-4-yl)-2-oxoethylidene)amino)oxy)cyclopropanecarboxylic acid] | 0.5 mg/L (≈ 0.794 µM) | 0.5 mg/L (≈ 0.794 µM)
C[n+]1cccc(CNCc2cnn(C[C@@H]3[C@H](NC(=O)/C(=N\OC4(C(=O)O)CC4)c4csc(N)n4)C(=O)N3S(=O)(=O)O)n2)c1 [Example 137, (2R,3S)-3-((Z)-2-(2-aminothiazol-4-yl)-2-((1-carboxycyclopropoxy)-imino)acetamido)-2-((4-((((1-methylpyridin-1-ium-3-yl)methyl)amino)methyl)-2H-1,2,3-triazol-2-yl)methyl)-4-oxoazetidine-1-sulfonate] | 1 mg/L | 0.5 mg/L
Nc1nc(/C(=N/OC2(C(=O)O)CC2)C(=O)N[C@@H]2C(=O)N(S(=O)(=O)O)[C@@H]2Cn2ncc(CN3CCC(N)CC3)n2)cs1 [Example 138, 1-(((Z)-(2-(((2R,3S)-2-((4-((4-aminopiperidin-1-yl)methyl)-2H-1,2,3-triazol-2-yl)methyl)-4-oxo-1-sulfoazetidin-3-yl)amino)-1-(2-aminothiazol-4-yl)-2-oxoethylidene)amino)oxy)cyclopropanecarboxylic acid] | 0.5 mg/L (≈ 0.816 µM) | 1 mg/L (≈ 1.63 µM)
Nc1nc(/C(=N/OC2(C(=O)O)CC2)C(=O)N[C@@H]2C(=O)N(S(=O)(=O)O)[C@@H]2Cn2ncc(CSC3Cn4cnc[n+]4C3)n2)cs1 (stereo partly drawn) [Example 139, (2R,3S)-3-((Z)-2-(2-aminothiazol-4-yl)-2-((1-carboxycyclopropoxy)imino)acetamido)-2-((4-(((6,7-dihydro-5H-pyrazolo[1,2-a][1,2,4]triazol-4-ium-6-yl)thio)methyl)-2H-1,2,3-triazol-2-yl)methyl)-4-oxoazetidine-1-sulfonate] | 1 mg/L | 4 mg/L
N=C(NCc1cnn(C[C@@H]2[C@H](NC(=O)/C(=N\OC3(C(=O)O)CC3)c3csc(N)n3)C(=O)N2S(=O)(=O)O)n1)N[C@H]1C[C@@H](N)C1 [Example 140, 1-(((Z)-(2-(((2R,3S)-2-((4-((3-((1 s,3S)-3-aminocyclobutyl)guanidino)methyl)-2H-1,2,3-triazol-2-yl)methyl)-4-oxo-1-sulfoazetidin-3-yl)amino)-1-(2-aminothiazol-4-yl)-2-oxoethylidene)amino)oxy)cyclopropanecarboxylic acid] | 0.25 mg/L (≈ 0.39 µM) | 0.25 mg/L (≈ 0.39 µM)
N=C(NCc1cnn(C[C@@H]2[C@H](NC(=O)/C(=N\OC3(C(=O)O)CC3)c3csc(N)n3)C(=O)N2S(=O)(=O)O)n1)N[C@H]1CCNC1 [Example 141, 1-(((Z)-(1-(2-aminothiazol-4-yl)-2-oxo-2-(((3S,4R)-2-oxo-4-((4-((3-((S)-pyrrolidin-3-yl)guanidino)methyl)-2H-1,2,3-triazol-2-yl)methyl)-1-sulfoazetidin-3-yl)amino)ethylidene)amino)oxy)cyclopropanecarboxylic acid] | 0.5 mg/L (≈ 0.78 µM) | 0.5 mg/L (≈ 0.78 µM)
Cc1nn(C[C@@H]2[C@H](NC(=O)/C(=N\OC3(C(=O)O)CC3)c3csc(N)n3)C(=O)N2S(=O)(=O)O)nc1CN [Example 143, 1-(((Z)-(2-(((2R,3S)-2-((4-(aminomethyl)-5-methyl-2H-1,2,3-triazol-2-yl)methyl)-4-oxo-1-sulfoazetidin-3-yl)amino)-1-(2-aminothiazol-4-yl)-2-oxoethylidene)amino)oxy)cyclopropanecarboxylic acid] | 0.5 mg/L (≈ 0.92 µM) | 0.25 mg/L (≈ 0.46 µM)
Cc1nn(C[C@@H]2[C@H](NC(=O)/C(=N\OC3(C(=O)O)CC3)c3csc(N)n3)C(=O)N2S(=O)(=O)O)nc1CNC(=N)NCCCN [Example 144, 1-(((Z)-(2-(((2R,3S)-2-((4-((3-(3-aminopropyl)guanidino)methyl)-5-methyl-2H-1,2,3-triazol-2-yl)methyl)-4-oxo-1-sulfoazetidin-3-yl)amino)-1-(2-aminothiazol-4-yl)-2-oxoethylidene)amino)oxy)cyclopropanecarboxylic acid] | 1 mg/L (≈ 1.56 µM) | 1 mg/L (≈ 1.56 µM)
CC(NC(=N)NCCCN)c1cnn(C[C@@H]2[C@H](NC(=O)/C(=N\OC3(C(=O)O)CC3)c3csc(N)n3)C(=O)N2S(=O)(=O)O)n1 (stereo partly drawn) [Example 145, 1-(((Z)-(2-(((2R,3S)-2-((4-(1-(3-(3-aminopropyl)guanidino)ethyl)-2H-1,2,3-triazol-2-yl)methyl)-4-oxo-1-sulfoazetidin-3-yl)amino)-1-(2-aminothiazol-4-yl)-2-oxoethylidene)amino)oxy)cyclopropanecarboxylic acid] | 0.5 mg/L (≈ 0.778 µM) | 0.5 mg/L (≈ 0.778 µM)
C[C@H](NCCCN)c1cnn(C[C@@H]2[C@H](NC(=O)/C(=N\OC3(C(=O)O)CC3)c3csc(N)n3)C(=O)N2S(=O)(=O)O)n1 [Example 146, 1-(((Z)-(2-(((2R,3S)-2-((4-((S)-1-((3-aminopropyl)amino)ethyl)-2H-1,2,3-triazol-2-yl)methyl)-4-oxo-1-sulfoazetidin-3-yl)amino)-1-(2-aminothiazol-4-yl)-2-oxoethylidene)amino)oxy)cyclopropanecarboxylic acid] | 0.5 mg/L (≈ 0.832 µM) | 0.5 mg/L (≈ 0.832 µM)
N=C(NCCOCCN)NCc1cnn(C[C@@H]2[C@H](NC(=O)/C(=N\OC3(C(=O)O)CC3)c3csc(N)n3)C(=O)N2S(=O)(=O)O)n1 [Example 147, 1-(((Z)-(2-(((2R,3S)-2-((4-((3-(2-(2-aminoethoxy)ethyl)guanidino)methyl)-2H-1,2,3-triazol-2-yl)methyl)-4-oxo-1-sulfoazetidin-3-yl)amino)-1-(2-aminothiazol-4-yl)-2-oxoethylidene)amino)oxy)cyclopropanecarboxylic acid] | 0.5 mg/L (≈ 0.759 µM) | 0.5 mg/L (≈ 0.759 µM)
